Experimental data reported in US20250059198A1, “BRM DEGRADING COMPOUNDS AND ASSOCIATED METHODS OF USE” (Arvinas Operations, Inc., priority 2021, published 2025).

Biological target: T1, BRM (Homo sapiens, UniProt P51531)
T1 construct: Western Blot Screen of BRM Degradation in SW1573 Cells; endogenous in cells; host or cells: SW1573 cells
Assay: BRM degradation (Dmax and DC50) in SW1573 cells, Western blot screen / In-Cell Western screen
Format: cell-based
Settings: overnight (18-20 hours) treatment; for Dmax: read-out: Dmax (%)** (% degraded)
Procedure, shortened: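 Dmax and DC50 were derived from BRM levels normalised to an alpha-tubulin control, measured by chemiluminescent Western blotting of lysates or by PFA-fixed In-Cell Western on LI-COR Odyssey. SW1573 cells received compound overnight (18–20 h, 0.1% DMSO final).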

T1 sequence (P51531 whole entry): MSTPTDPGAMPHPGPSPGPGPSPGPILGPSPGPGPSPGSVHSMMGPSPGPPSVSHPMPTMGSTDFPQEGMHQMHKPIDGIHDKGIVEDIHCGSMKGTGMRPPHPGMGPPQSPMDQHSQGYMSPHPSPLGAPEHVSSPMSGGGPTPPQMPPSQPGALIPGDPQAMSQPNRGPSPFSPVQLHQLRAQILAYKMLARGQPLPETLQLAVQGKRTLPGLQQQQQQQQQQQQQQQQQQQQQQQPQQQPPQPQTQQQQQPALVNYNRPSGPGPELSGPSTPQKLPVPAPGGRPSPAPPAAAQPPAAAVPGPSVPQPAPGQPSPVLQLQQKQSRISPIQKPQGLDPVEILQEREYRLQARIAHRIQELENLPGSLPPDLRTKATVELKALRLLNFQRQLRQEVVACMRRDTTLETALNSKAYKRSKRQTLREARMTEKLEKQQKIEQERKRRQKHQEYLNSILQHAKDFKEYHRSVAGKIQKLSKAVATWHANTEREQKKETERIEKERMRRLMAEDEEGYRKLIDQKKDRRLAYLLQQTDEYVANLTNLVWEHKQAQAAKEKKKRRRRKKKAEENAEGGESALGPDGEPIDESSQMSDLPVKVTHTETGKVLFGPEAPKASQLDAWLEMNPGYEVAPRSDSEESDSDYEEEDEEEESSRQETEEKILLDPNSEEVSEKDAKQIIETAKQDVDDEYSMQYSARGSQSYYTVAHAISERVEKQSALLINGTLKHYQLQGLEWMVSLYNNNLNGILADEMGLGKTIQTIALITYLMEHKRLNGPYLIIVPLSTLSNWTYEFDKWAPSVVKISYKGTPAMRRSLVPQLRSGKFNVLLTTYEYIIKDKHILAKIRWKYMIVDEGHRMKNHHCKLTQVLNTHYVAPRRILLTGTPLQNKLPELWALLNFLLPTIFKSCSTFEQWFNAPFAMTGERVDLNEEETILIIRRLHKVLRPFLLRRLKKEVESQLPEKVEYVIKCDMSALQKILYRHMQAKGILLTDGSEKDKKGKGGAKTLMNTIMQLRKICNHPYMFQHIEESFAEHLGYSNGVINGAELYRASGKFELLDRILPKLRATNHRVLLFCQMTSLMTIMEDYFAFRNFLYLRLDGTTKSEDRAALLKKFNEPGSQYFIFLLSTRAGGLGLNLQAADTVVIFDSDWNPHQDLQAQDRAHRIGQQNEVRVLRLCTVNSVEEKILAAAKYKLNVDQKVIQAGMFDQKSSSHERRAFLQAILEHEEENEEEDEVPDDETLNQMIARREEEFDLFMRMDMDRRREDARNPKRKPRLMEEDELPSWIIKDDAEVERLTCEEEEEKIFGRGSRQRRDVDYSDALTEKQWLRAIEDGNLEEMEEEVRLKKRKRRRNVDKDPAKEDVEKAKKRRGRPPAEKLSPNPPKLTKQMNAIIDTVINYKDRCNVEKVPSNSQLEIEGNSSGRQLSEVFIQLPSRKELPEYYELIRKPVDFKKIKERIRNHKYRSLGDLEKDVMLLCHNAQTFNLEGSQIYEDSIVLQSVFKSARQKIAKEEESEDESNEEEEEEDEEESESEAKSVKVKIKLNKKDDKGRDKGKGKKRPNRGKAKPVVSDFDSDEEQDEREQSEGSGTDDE

SMILES	DC50	Dmax
Cc1ncsc1-c1ccc([C@H](C)NC(=O)[C@@H]2C[C@@H](O)CN2C(=O)[C@@H](c2cc(N3CCC(CN4CCC(O[C@H]5C[C@H](CN6CCC(N7C8CCC7CN(c7cc(-c9ccccc9O)nnc7N)C8)CC6)C5)CC4)CC3)no2)C(C)C)cc1 [Compound 24, (2S,4R)-4-hydroxy-N-[(1S)-1-[4-(4-methyl-1,3-thiazol-5-yl)phenyl]ethyl]-1-[(2R)-3-methyl-2-{3-[4-({4-[(1r,3r)-3-[(4-{3-[3-amino-6-(2-hydroxyphenyl)pyridazin-4-yl]-3,8-diazabicyclo[3.2.1]octan-8-yl}piperidin-1-yl)methyl]cyclobutoxy]piperidin-1-yl}methyl)piperidin-1-yl]-1,2-oxazol-5-yl}butanoyl]pyrrolidine-2-carboxamide]	< 2.5 nM	> 75%
Cc1ncsc1-c1ccc([C@H](C)NC(=O)[C@@H]2C[C@@H](O)CN2C(=O)[C@@H](c2cc(N3CCC(CN4CCC(O[C@H]5C[C@H](N6CCC(C(=O)N7C8CCC7CN(c7cc(-c9ccccc9O)nnc7N)C8)CC6)C5)CC4)CC3)no2)C(C)C)cc1 [Compound 25, (2S,4R)-4-hydroxy-N-[(1S)-1-[4-(4-methyl-1,3-thiazol-5-yl)phenyl]ethyl]-1-[(2R)-3-methyl-2-{3-[4-({4-[(1r,3r)-3-(4-{3-[3-amino-6-(2-hydroxyphenyl)pyridazin-4-yl]-3,8-diazabicyclo[3.2.1]octane-8-carbonyl}piperidin-1-yl)cyclobutoxy]piperidin-1-yl}methyl)piperidin-1-yl]-1,2-oxazol-5-yl}butanoyl]pyrrolidine-2-carboxamide]	< 2.5 nM	> 75%
CC(C)[C@@H](C(=O)N1C[C@H](O)C[C@H]1C(=O)N[C@@H](C)c1ccc(C#N)cc1)c1cc(N2CCC(CN3CCC(O[C@H]4C[C@H](Oc5cc(N6CC7CC(C6)N7c6cc(-c7ccccc7O)nnc6N)ccn5)C4)CC3)CC2)no1 [Compound 26, (2S,4R)-N-[(1S)-1-(4-cyanophenyl)ethyl]-4-hydroxy-1-[(2R)-3-methyl-2-{3-[4-({4-[(1r,3r)-3-[(4-{6-[3-amino-6-(2-hydroxyphenyl)pyridazin-4-yl]-3,6-diazabicyclo[3.1.1]heptan-3-yl}pyridin-2-yl)oxy]cyclobutoxy]piperidin-1-yl}methyl)piperidin-1-yl]-1,2-oxazol-5-yl}butanoyl]pyrrolidine-2-carboxamide]	2.5 to 10 nM	> 75%
Cc1ncsc1-c1ccc([C@H](C)NC(=O)[C@@H]2C[C@@H](O)CN2C(=O)[C@@H](c2cc(N3CCC(CN4CCC(O[C@H]5C[C@H](N6CCC(F)(CN7C8CCC7CN(c7cc(-c9ccccc9O)nnc7N)C8)CC6)C5)CC4)CC3)no2)C(C)C)cc1 [Compound 27, (2S,4R)-4-hydroxy-N-[(1S)-1-[4-(4-methyl-1,3-thiazol-5-yl)phenyl]ethyl]-1-[(2R)-3-methyl-2-{3-[4-({4-[(1r,3r)-3-[4-({3-[3-amino-6-(2-hydroxyphenyl)pyridazin-4-yl]-3,8-diazabicyclo[3.2.1]octan-8-yl}methyl)-4-fluoropiperidin-1-yl]cyclobutoxy]piperidin-1-yl}methyl)piperidin-1-yl]-1,2-oxazol-5-yl}butanoyl]pyrrolidine-2-carboxamide]	< 2.5 nM	> 75%
CC(C)[C@@H](C(=O)N1C[C@H](O)C[C@H]1C(=O)N[C@@H](C)c1ccc(-c2ccnn2C)cc1)c1cc(N2CCC(CN3CCC(O[C@H]4C[C@H](N5CCOC6(CCN(c7cc(-c8ccccc8O)nnc7N)CC6)C5)C4)CC3)CC2)no1 [Compound 28, (2S,4R)-4-hydroxy-N-[(1S)-1-[4-(1-methyl-1H-pyrazol-5-yl)phenyl]ethyl]-1-[(2R)-3-methyl-2-{3-[4-({4-[(1r,3r)-3-{9-[3-amino-6-(2-hydroxyphenyl)pyridazin-4-yl]-1-oxa-4,9-diazaspiro[5.5]undecan-4-yl}cyclobutoxy]piperidin-1-yl}methyl)piperidin-1-yl]-1,2-oxazol-5-yl}butanoyl]pyrrolidine-2-carboxamide]	< 2.5 nM	> 75%
Cc1ncsc1-c1ccc([C@H](C)NC(=O)[C@@H]2C[C@@H](O)CN2C(=O)[C@@H](c2cc(N3CCC(CN4CCC5(CC4)CC(Oc4cc(N6C7CCC6CN(c6cc(-c8ccccc8O)nnc6N)C7)ccn4)C5)CC3)no2)C(C)C)cc1 [Compound 29, (2S,4R)-1-[(2R)-2-{3-[4-({2-[(4-{3-[3-amino-6-(2-hydroxyphenyl)pyridazin-4-yl]-3,8-diazabicyclo[3.2.1]octan-8-yl}pyridin-2-yl)oxy]-7-azaspiro[3.5]nonan-7-yl}methyl)piperidin-1-yl]-1,2-oxazol-5-yl}-3-methylbutanoyl]-4-hydroxy-N-[(1S)-1-[4-(4-methyl-1,3-thiazol-5-yl)phenyl]ethyl]pyrrolidine-2-carboxamide]	< 2.5 nM	> 75%
CC(C)[C@@H](C(=O)N1C[C@H](O)C[C@H]1C(=O)N[C@@H](C)c1ccc(-c2ccnn2C)cc1)c1cc(N2CCC(CN3CCC(O[C@H]4C[C@H](Oc5cc(/C=C/c6cc(-c7ccccc7O)nnc6N)ccn5)C4)CC3)CC2)no1 [Compound 30, (2S,4R)-4-hydroxy-N-[(1S)-1-[4-(1-methyl-1H-pyrazol-5-yl)phenyl]ethyl]-1-[(2R)-3-methyl-2-{3-[4-({4-[(1r,3r)-3-({4-[(1E)-2-[3-amino-6-(2-hydroxyphenyl)pyridazin-4-yl]ethenyl]pyridin-2-yl}oxy)cyclobutoxy]piperidin-1-yl}methyl)piperidin-1-yl]-1,2-oxazol-5-yl}butanoyl]pyrrolidine-2-carboxamide]	< 2.5 nM	> 75%
Cc1ncsc1-c1ccc([C@H](C)NC(=O)[C@@H]2C[C@@H](O)CN2C(=O)[C@@H](c2cc(N3CCC(CN4CCC(CN5CCC6(CC5)CC(N5CCC(C(C)n7cc(-c8cc(-c9ccccc9O)nnc8N)cn7)CC5)C6)CC4)CC3)no2)C(C)C)cc1 (stereo partly drawn) [Compound 31, (2S,4R)-1-[(2R)-2-[3-(4-{[4-({2-[4-(1-{4-[3-amino-6-(2-hydroxyphenyl)pyridazin-4-yl]-1H-pyrazol-1-yl}ethyl)piperidin-1-yl]-7-azaspiro[3.5]nonan-7-yl}methyl)piperidin-1-yl]methyl}piperidin-1-yl)-1,2-oxazol-5-yl]-3-methylbutanoyl]-4-hydroxy-N-[(1S)-1-[4-(4-methyl-1,3-thiazol-5-yl)phenyl]ethyl]pyrrolidine-2-carboxamide]	< 2.5 nM	> 75%
Cc1ncsc1-c1ccc([C@H](C)NC(=O)[C@@H]2C[C@@H](O)CN2C(=O)[C@@H](c2cc(N3CCC(CN4CCC5(CC4)CC(CN4CCC(Oc6cc(N7C8CCC7CN(c7cc(-c9ccccc9O)nnc7N)C8)ccn6)CC4)C5)CC3)no2)C(C)C)cc1 [Compound 32, (2S,4R)-1-[(2R)-2-[3-(4-{[2-({4-[(4-{3-[3-amino-6-(2-hydroxyphenyl)pyridazin-4-yl]-3,8-diazabicyclo[3.2.1]octan-8-yl}pyridin-2-yl)oxy]piperidin-1-yl}methyl)-7-azaspiro[3.5]nonan-7-yl]methyl}piperidin-1-yl)-1,2-oxazol-5-yl]-3-methylbutanoyl]-4-hydroxy-N-[(1S)-1-[4-(4-methyl-1,3-thiazol-5-yl)phenyl]ethyl]pyrrolidine-2-carboxamide]	< 2.5 nM	> 75%
CC(C)[C@H](C(=O)N1C[C@H](O)C[C@H]1C(=O)N[C@@H](C)c1ccc(-c2ccnn2C)cc1)c1cc(N2CCC(CN3CCC(CN4CCC5(CC4)CC(Oc4cc(N6C7CCC6CN(c6cc(-c8ccccc8O)nnc6N)C7)ccn4)C5)CC3)CC2)no1 [Compound 33, (2S,4R)-1-[(2S)-2-[3-(4-{[4-({2-[(4-{3-[3-amino-6-(2-hydroxyphenyl)pyridazin-4-yl]-3,8-diazabicyclo[3.2.1]octan-8-yl}pyridin-2-yl)oxy]-7-azaspiro[3.5]nonan-7-yl}methyl)piperidin-1-yl]methyl}piperidin-1-yl)-1,2-oxazol-5-yl]-3-methylbutanoyl]-4-hydroxy-N-[(1S)-1-[4-(1-methyl-1H-pyrazol-5-yl)phenyl]ethyl]pyrrolidine-2-carboxamide]	10 to 30 nM	> 75%
CC(C)C(C(=O)N1C[C@H](O)C[C@H]1C(=O)N[C@@H](C)c1ccc(-c2ccnn2C)cc1)c1cc(OCC#Cc2ncc(O[C@H]3C[C@H](Oc4cc(N5CCN(c6cc(-c7ccccc7O)nnc6N)CC5)ccn4)C3)cn2)no1 (stereo partly drawn) [Compound 34, (2S,4R)-4-hydroxy-N-[(1S)-1-[4-(1-methyl-1H-pyrazol-5-yl)phenyl]ethyl]-1-(3-methyl-2-{3-[(3-{5-[(1r,3r)-3-[(4-{4-[3-amino-6-(2-hydroxyphenyl)pyridazin-4-yl]piperazin-1-yl}pyridin-2-yl)oxy]cyclobutoxy]pyrimidin-2-yl}prop-2-yn-1-yl)oxy]-1,2-oxazol-5-yl}butanoyl)pyrrolidine-2-carboxamide]	< 2.5 nM	> 75%
Cc1ncsc1-c1ccc([C@H](C)NC(=O)[C@@H]2C[C@@H](O)CN2C(=O)[C@@H](c2cc(N3CCC(CN4CCC5(CC4)CC(N4CCO[C@H](CN6C7CCC6CN(c6cc(-c8ccccc8O)nnc6N)C7)C4)C5)CC3)no2)C(C)C)cc1 [Compound 35, (2S,4R)-1-[(2R)-2-{3-[4-({2-[(2S)-2-({3-[3-amino-6-(2-hydroxyphenyl)pyridazin-4-yl]-3,8-diazabicyclo[3.2.1]octan-8-yl}methyl)morpholin-4-yl]-7-azaspiro[3.5]nonan-7-yl}methyl)piperidin-1-yl]-1,2-oxazol-5-yl}-3-methylbutanoyl]-4-hydroxy-N-[(1S)-1-[4-(4-methyl-1,3-thiazol-5-yl)phenyl]ethyl]pyrrolidine-2-carboxamide]	< 2.5 nM	> 75%
